Assays:
ISC-enriched organoids [1] = assay: Primary screen, 384-well 2.5-D organoid differentiation (ENR+CD, 6 days, Target Selective Inhibitor Library, vs whole-plate median): ATP (CellTiter-Glo 3D, CTG); conditions: for Dose.FC.CTG: ENR+CD, 6 days, FC vs plate median; for Z.CTG: standard z score of FC
ISC-enriched organoids [2] = assay: Primary screen, 384-well 2.5-D organoid differentiation (ENR+CD, 6 days): basal lysozyme secretion (LYZ.NS); assay type: cell-based, murine; conditions: for Dose.FC.LYZ.NS: ENR+CD, 6 days, FC vs plate median; for Z.LYZ.NS: standard z score of FC
Excerpt: (§1) High-throughput screening.

ISC-enriched organoids [3] = assay: Primary screen, 384-well 2.5-D organoid differentiation (ENR+CD, 6 days): carbachol-induced lysozyme secretion (LYZ.S); assay type: cell-based, murine; conditions: ENR+CD, 6 days, FC vs plate median
Excerpt: as §1

| SMILES | Dose.FC.CTG (ISC-enriched organoids [1]; Dose 0.08 uM) [log 2 fold change] | Z.CTG (ISC-enriched organoids [1]; Dose 0.08 uM) | Dose.FC.CTG (ISC-enriched organoids [1]; Dose 0.40 uM) [log 2 fold change] | Z.CTG (ISC-enriched organoids [1]; Dose 0.40 uM) | Dose.FC.CTG (ISC-enriched organoids [1]; Dose 2.00 uM) [log 2 fold change] | Z.CTG (ISC-enriched organoids [1]; Dose 2.00 uM) | Dose.FC.CTG (ISC-enriched organoids [1]; Dose 10.00 uM) [log 2 fold change] | Z.CTG (ISC-enriched organoids [1]; Dose 10.00 uM) | Dose.FC.LYZ.NS (ISC-enriched organoids [2]; Dose 0.08 uM) [log 2 fold change] | Z.LYZ.NS (ISC-enriched organoids [2]; Dose 0.08 uM) | Dose.FC.LYZ.NS (ISC-enriched organoids [2]; Dose 0.40 uM) [log 2 fold change] | Z.LYZ.NS (ISC-enriched organoids [2]; Dose 0.40 uM) | Dose.FC.LYZ.NS (ISC-enriched organoids [2]; Dose 2.00 uM) [log 2 fold change] | Z.LYZ.NS (ISC-enriched organoids [2]; Dose 2.00 uM) | Dose.FC.LYZ.NS (ISC-enriched organoids [2]; Dose 10.00 uM) [log 2 fold change] | Z.LYZ.NS (ISC-enriched organoids [2]; Dose 10.00 uM) | Dose.FC.LYZ.S (ISC-enriched organoids [3]; Dose 0.08 uM) [log 2 fold change] | Dose.FC.LYZ.S (ISC-enriched organoids [3]; Dose 0.40 uM) [log 2 fold change] | Dose.FC.LYZ.S (ISC-enriched organoids [3]; Dose 2.00 uM) [log 2 fold change] | Dose.FC.LYZ.S (ISC-enriched organoids [3]; Dose 10.00 uM) [log 2 fold change] |
| --- | --- | --- | --- | --- | --- | --- | --- | --- | --- | --- | --- | --- | --- | --- | --- | --- | --- | --- | --- | --- |
| CO[C@H]1C[C@@H]2CC[C@@H](C)[C@@](O)(O2)C(=O)C(=O)N2CCCC[C@H]2C(=O)O[C@H]([C@H](C)C[C@@H]2CC[C@@H](OCCO)[C@H](OC)C2)CC(=O)[C@H](C)/C=C(\C)[C@@H](O)[C@@H](OC)C(=O)[C@H](C)C[C@H](C)/C=C/C=C/C=C/1C [Everolimus (RAD001)] | 0.392 | 0.936 | 0.127 | 0.304 | 0.132 | 0.314 | −0.111 | −0.266 | 0.068 | 0.590 | 0.110 | 0.956 | −0.003 | −0.030 | −0.024 | −0.210 | −0.012 | −0.007 | −0.039 | −0.096 |
| CC1=C(C(=O)OC2CCCCC2)C(c2ccc([N+](=O)[O-])cc2)C2=C(CC(C)(C)CC2=O)N1 (stereo not drawn) [FLI-06] | 0.089 | 0.213 | 0.095 | 0.226 | 0.076 | 0.182 | −0.343 | −0.819 | 0.050 | 0.439 | −0.026 | −0.230 | −0.054 | −0.466 | −0.140 | −1.216 | 0.079 | 0.010 | −0.077 | −0.170 |
| CCOC(=O)c1ccc(NC2CCCCC2)c(N)c1 [Ferrostatin-1 (Fer-1)] | 0.312 | 0.745 | 0.453 | 1.082 | 0.215 | 0.514 | −0.046 | −0.109 | 0.108 | 0.944 | 0.116 | 1.012 | 0.070 | 0.610 | 0.013 | 0.116 | 0.120 | 0.207 | 0.092 | −0.018 |
| CCCCCCCCc1ccc(CCC(N)(CO)CO)cc1.Cl [Fingolimod (FTY720) HCl] | −0.080 | −0.191 | 0.103 | 0.245 | −0.468 | −1.119 | −1.304 | −3.116 | −0.054 | −0.471 | 0.071 | 0.616 | 0.021 | 0.186 | −0.225 | −1.961 | −0.046 | 0.077 | −0.060 | −0.362 |
| COc1ccc(C[C@@H](C)NC[C@H](O)c2ccc(O)c(NC=O)c2)cc1.COc1ccc(C[C@@H](C)NC[C@H](O)c2ccc(O)c(NC=O)c2)cc1.O=C(O)/C=C/C(=O)O [Formoterol Hemifumarate] | 0.294 | 0.703 | 0.265 | 0.633 | 0.242 | 0.578 | 0.253 | 0.604 | 0.145 | 1.263 | 0.073 | 0.638 | 0.048 | 0.420 | 0.013 | 0.114 | 0.206 | 0.293 | 0.090 | 0.011 |
| COc1cc(Nc2ncc(F)c(Nc3ccc4c(n3)N(COP(=O)(O)O)C(=O)C(C)(C)O4)n2)cc(OC)c1OC [Fostamatinib (R788)] | 0.232 | 0.554 | −0.052 | −0.123 | −0.231 | −0.552 | −0.881 | −2.105 | 0.119 | 1.033 | −0.025 | −0.217 | −0.099 | −0.860 | −0.234 | −2.036 | 0.235 | 0.156 | −0.015 | −0.350 |
| CC(C)NC[C@@H](C(=O)N1CCN(c2ncnc3c2[C@H](C)C[C@H]3O)CC1)c1ccc(Cl)cc1 [GDC-0068] | 0.042 | 0.099 | 0.118 | 0.283 | 0.184 | 0.439 | −0.100 | −0.238 | 0.036 | 0.311 | 0.054 | 0.469 | −0.077 | −0.675 | −0.185 | −1.613 | 0.076 | 0.087 | −0.059 | −0.319 |
| CN[C@@H](C)C(=O)N[C@H](C(=O)N1CCC[C@H]1C(=O)Nc1snnc1-c1ccccc1)C1CCCCC1 [GDC-0152] | 0.151 | 0.361 | 0.158 | 0.377 | 0.003 | 0.008 | 0.241 | 0.575 | −0.002 | −0.013 | −0.020 | −0.176 | 0.083 | 0.724 | 0.103 | 0.900 | −0.020 | −0.036 | −0.057 | −0.009 |
| CS(=O)(=O)N1CCN(Cc2cc3nc(-c4cccc5[nH]ncc45)nc(N4CCOCC4)c3s2)CC1 [GDC-0941] | 0.283 | 0.677 | 0.022 | 0.053 | −0.197 | −0.472 | −1.223 | −2.921 | 0.008 | 0.070 | −0.013 | −0.112 | −0.128 | −1.113 | −0.156 | −1.362 | 0.018 | −0.076 | −0.248 | −0.257 |
